Measured values from patent US7166588B2 (priority 2000, dated 2007).
Structures can show the parent of a compound that is named as a salt.

target: acetylcholinesterase (AChE), human recombinant (Homo sapiens, UniProt P22303); experiment: biochemical; conditions: pre-incubation of the enzyme with inhibitor, read-out: IC50 (AChE, mE, hr)
Sequence (P22303 32-614): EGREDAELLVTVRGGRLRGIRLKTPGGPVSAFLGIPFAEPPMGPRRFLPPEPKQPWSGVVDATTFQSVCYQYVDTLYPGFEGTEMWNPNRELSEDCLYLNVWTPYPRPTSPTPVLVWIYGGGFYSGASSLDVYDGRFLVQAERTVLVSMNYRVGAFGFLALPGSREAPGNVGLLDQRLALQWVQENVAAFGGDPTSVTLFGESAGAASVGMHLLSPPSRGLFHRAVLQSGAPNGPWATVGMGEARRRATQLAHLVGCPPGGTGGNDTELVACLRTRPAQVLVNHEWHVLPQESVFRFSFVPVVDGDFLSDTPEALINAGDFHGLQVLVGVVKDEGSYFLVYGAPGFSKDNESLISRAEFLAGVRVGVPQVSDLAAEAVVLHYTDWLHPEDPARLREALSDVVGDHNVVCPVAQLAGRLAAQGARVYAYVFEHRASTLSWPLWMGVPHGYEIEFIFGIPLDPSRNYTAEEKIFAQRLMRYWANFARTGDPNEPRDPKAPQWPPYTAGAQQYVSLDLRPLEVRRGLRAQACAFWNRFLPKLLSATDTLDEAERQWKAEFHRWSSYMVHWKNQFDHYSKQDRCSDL

| SMILES | IC50 |
| --- | --- |
| C#CC[N+]1(C)CC[C@@]23C=C[C@@H](O)C[C@@H]2Oc2c(OC)cc(C)c(c23)C1 (mixture of isomers) [SPH-1251] | 59 µM |
| COc1ccc2c3c1O[C@H]1CC(O)C=C[C@@]31CCN(C(=O)OC(C)(C)C)C2 (relative stereo) [SPH-1302, (4aa,6β,8aR*)-4a,5,9,10-Tetrahydro-6-hydroxy-3-methoxy-6H-benzofuro[3a,3,2-ef][2]benzazepine-11(12H)-carboxylic acid-1,1-dimethylethyl ester] | 23 µM |
| COc1ccc2c3c1O[C@H]1CC(O)C=C[C@@]31CC[N+](C)(Cc1ccc(Br)cc1)C2 (single isomer, unassigned; (-)) [SPH-1184, (−)(4-Bromophenyl)methylgalanthaminium bromide hemihydrate] | 0.2 µM |
| COc1ccc2c3c1O[C@H]1CC(O)C=C[C@@]31CC[N+](C)(CCCCl)C2 (single isomer, unassigned; (-)) [SPH-1191, (−)(3-Chloropropyl)-galanthaminium Bromide, 1.25 H2O] | 0.35 µM |
| COc1ccc2c3c1O[C@@H]1CC(O)C=CC31CCN(C(=O)NC(C)C)C2 (stereo in doubt) [SPH-1214, (6R)-6-Hydroxy-N^11-isopropyl-3-methoxy-5,6,9,10-tetrahydro-4aH-[1]benzofuro[3a,3,2-ef][2]benzazepine-11(12H)carboxamide] | 4.2 µM |
| COc1ccc2c3c1O[C@@H]1CC(O)C=CC31CCN(c1ccnc(OCCCN(C)C)n1)C2 (stereo in doubt) [SPH-1244, (6R)-11-(2-(3-(Dimethylamino)propoxy)-4-pyrimidinyl)-3-methoxy-5,6,9,10,11,12-hexahydro-4aH-[1]benzofuro[3a,3,2-ef][2]benzazepin-6-ol] | 7.6 µM |
| COc1ccc2c3c1O[C@@H]1CC(O)C=CC31CCN(CCCN1CCCCC1)C2 (stereo in doubt) [SPH-1371, (4aα,6b, 8aR* )-4a,5,9,10,111,12-Hexahydro-3-methoxy-11-[3-(1-piperidinyl)propyl]-6H-benzofuro[3a,3,2-ef][2]benzazepin-6-ol, Dihydrobromide, Dihydrate] | 0.36 µM |
| COc1ccc2c3c1O[C@@H]1C[C@H](O)C=CC31CCN(CCCN1CC3CC1CN3c1ccc(F)cc1)C2 (stereo partly shown) [SPH-1196] | 5.2 µM |
| COc1cc(C)c2c3c1O[C@@H]1C[C@H](O)C=CC31CCN(CCCN1CCCCC1)C2 (stereo partly shown) [SPH-1201] | 46 µM |
| C#CC[N+]1(C)CCC23C=C[C@@H](O)C[C@H]2Oc2c(OC)cc(C)c(c23)C1 (stereo partly shown) [SPH-1206] | 78 µM |
| COc1cc(C)c2c3c1O[C@@H]1C[C@H](O)C=CC31CC[N+](C)(Cc1ccccc1)C2 (stereo partly shown) [SPH-1207] | 47 µM |
| CNC(=S)N1CCC23C=C[C@H](O)CC2Oc2c(OC)cc(Br)c(c23)C1 (stereo partly drawn) [SPH-1209, (6R)-1-Bromo-6-hydroxy-3-methoxy-N^11-methyl-5,6,9,10-tetrahydro-4aH-[1]benzofuro[3a,3,2-ef][2]benzazepine-11(12H)-thiocarboxylic acid amide] | 31 µM |
| CNC(=S)N1CCC23C=C[C@@H](O)C[C@H]2Oc2c(OC)ccc(c23)C1 (stereo partly shown) [SPH-1211] | 23 µM |
| COc1ccc2c3c1O[C@@H]1C[C@H](O)C=CC31CCN(C(=O)Nc1ccccc1)C2 (stereo partly shown) [SPH-1215] | 70 µM |
| COc1ccc2c3c1O[C@@H]1C[C@H](O)C=CC31CCN(C=C(C#N)C#N)C2 (stereo partly shown) [SPH-1219] | 28.5 µM |
| COc1ccc2c3c1O[C@@H]1C[C@H](O)C=CC31CCN(CCCO)C2 (stereo partly shown) [SPH-1220] | 7.2 µM |
| COc1ccc2c3c1O[C@@H]1C[C@H](O)C=CC31CCN(C(=O)NC(C)(C)C)C2 (stereo partly shown) [SPH-1221] | 4.8 µM |
| COc1ccc2c3c1O[C@@H]1C[C@H](N)C=CC31CCN(C)C2 (stereo partly drawn) [SPH-1227, [4aS-(4aα,6α,8aR*)]-4a,5,9,10,11,12-Hexahydro-3-methoxy-11-methyl-6H-benzofuro[3a,3,2-ef][2]benzazepine-6-amine] | 40 µM |
| COc1ccc2c3c1O[C@@H]1C[C@H](O)C=CC31CCN(c1ncccn1)C2 (stereo partly shown) [SPH-1229] | 38 µM |
| COc1ccc2c3c1O[C@@H]1C[C@H](O)C=CC31CCN(C(=O)Nc1ccc3ccccc3c1)C2 (stereo partly shown) [SPH-1232] | 36 µM |

| SMILES | IC50 |
| --- | --- |
| COc1ccc2c3c1O[C@@H]1C[C@H](O)C=CC31CCN(CCCN)C2 (stereo partly shown) [SPH-1235] | 3.4 µM |
| C=CCNC(=S)N1CCC23C=C[C@@H](O)C[C@H]2Oc2c(OC)ccc(c23)C1 (stereo partly shown) [SPH-1236] | 21 µM |
| COc1ccc2c3c1O[C@@H]1C[C@H](O)C=CC31CCN(C(=O)Nc1ccc(Cl)cc1)C2 (stereo partly shown) [SPH-1237] | 24 µM |
| CCN(CC)c1nc(N(CC)CC)nc(N2CCC34C=C[C@@H](O)C[C@H]3Oc3c(OC)ccc(c34)C2)n1 (stereo partly shown) [SPH-1243] | 40 µM |
| CCN(CC)c1nccc(N2CCC34C=C[C@@H](O)C[C@H]3Oc3c(OC)ccc(c34)C2)n1 (stereo partly shown) [SPH-1245] | 25 µM |
| COc1ccc2c3c1O[C@@H]1C[C@H](O)C=CC31CCN(CCC(=O)NC(C)(C)C)C2 (stereo partly shown) [SPH-1249] | 45 µM |
| COc1cc(C)c2c3c1O[C@@H]1C[C@H](O)C=CC31CC[N+](C)(Cc1ccc(C(F)(F)F)cc1)C2 (stereo partly shown) [SPH-1253] | 60 µM |
| COC(=O)/C=C(\C(=O)OC)N1CCC23C=C[C@@H](O)C[C@H]2Oc2c(OC)ccc(c23)C1 (stereo partly shown) [SPH-1259] | 140 µM |
| COc1ccc2c3c1O[C@@H]1C[C@H](O)C=CC31CCN(CCC(=O)NC(C)C)C2 (stereo partly shown) [SPH-1262] | 54.5 µM |
| COc1ccc2c3c1O[C@@H]1C[C@H](O)C=CC31CCN(C(=O)NC(C)c1ccccc1)C2 (stereo partly shown) [SPH-1267] | 30 µM |
| COc1ccc2c3c1O[C@@H]1CC(O)C=CC31CCN(C(N)=O)C2 (stereo partly shown) [SPH-1268] | 44 µM |
| COc1ccc2c3c1O[C@@H]1C[C@H](O)C=CC31CCN(C(=O)NC(C)C)C2 (stereo partly shown) [SPH-1269] | 2.6 µM |
| COc1ccc2c3c1O[C@@H]1C[C@H](O)C=CC31CCN(C(=O)NC(C)(C)C)C2 (stereo partly shown) [SPH-1270] | 2.5 µM |
| COc1ccc2c3c1O[C@@H]1CC(O)C=CC31CCN(/C(=N/C#N)SC)C2 (stereo partly shown) [SPH-1272] | 6.7 µM |
| COc1ccc2c3c1O[C@@H]1CC(O)C=CC31CCN(c1ccccc1)C2 (stereo partly shown) [SPH-1280] | 0.5 µM |
| COc1ccc2c3c1O[C@@H]1CC(O)C=CC31CCN(c1cccs1)C2 (stereo partly shown) [SPH-1282] | 4 µM |
| COc1ccc2c3c1O[C@H]1CC(O)C=CC31CCN(C(=O)NC(C)(C)C)C2 (stereo partly shown) [SPH-1283] | 93 µM |
| COc1ccc2c3c1O[C@H]1CC(O)C=CC31CCN(C(=O)NC(C)C)C2 (stereo partly shown) [SPH-1284] | 8 µM |
| COc1ccc2c3c1O[C@@H]1CC(O)C=CC31CCN(CCCN1CCCCC1)C2 (stereo partly shown) [SPH-1286] | 0.3 µM |
| CNC(=S)N1CCC23C=C[C@@H](O)C[C@H]2Oc2c(OC)ccc(c23)C1 (stereo partly shown) [SPH-1287] | 18.5 µM |

| SMILES | IC50 |
| --- | --- |
| COc1ccc2c3c1O[C@@H]1CC(O)C=CC31CCN(CC1CC1)C2 (stereo partly shown) [SPH-1289] | 0.7 µM |
| COc1ccc2c3c1O[C@@H]1CC(O)C=CC31CCN(C)C2C#N (stereo partly shown) [SPH-1290] | 1.2 µM |
| COc1ccc2c3c1O[C@@H]1CC(O)C=CC31CCN(C)C2C#N (stereo partly shown) [SPH-1291] | 0.8 µM |
| COc1ccc2c3c1O[C@@H]1CC(O)C=CC31CCN(C(=O)OCC1c3ccccc3-c3ccccc31)C2 (stereo partly shown) [SPH-1292] | 40 µM |
| COc1ccc2c3c1O[C@@H]1CC(O)C=CC31CCN(C)C2C (stereo partly shown) [SPH-1293] | 4.2 µM |
| COc1ccc2c3c1O[C@@H]1CC(O)C=CC31CCN(CC#N)C2 (stereo partly shown) [SPH-1295] | 15 µM |
| COc1ccc2c3c1O[C@@H]1CC(O)C=CC31CCN(C(=O)Oc1ccccc1)C2 (stereo partly shown) [SPH-1296] | 46 µM |
| COc1ccc2c3c1O[C@@H]1CC(O)C=CC31CCN(CCCN1CC3CC1CN3c1ccc(F)cc1)C2 (stereo partly shown) [SPH-1312] | 3 µM |
| COc1ccc2c3c1O[C@@H]1CC(O)C=CC31CCN(CC(=O)N1CC3CC1CN3c1ccccc1)C2 (stereo partly shown) [SPH-1314] | 8.4 µM |
| COc1ccc2c3c1O[C@@H]1CC(O)C=CC31CCN(CCCO)C2 (stereo partly shown) [SPH-1315] | 2.8 µM |
| COc1cc(C)c2c3c1O[C@@H]1CC(O)C=CC31CCN(C)C2C#N (stereo partly shown) [SPH-1317] | 80 µM |
| COc1cc(C)c2c3c1OC1CC(O)C=CC31CCN(C)C2C (stereo not shown) [SPH-1320] | 83 µM |
| COc1ccc2c3c1O[C@@H]1CC(O)C=CC31CCN(C(=S)Oc1ccccc1)C2 (stereo partly shown) [SPH-1328] | 7.2 µM |
| COc1ccc2c3c1O[C@H]1CC(O)C=CC31CCN(CCCN1CCCCC1)C2 (stereo partly shown) [SPH-1333] | 9 µM |
| COc1cc2c(cc1OC)C(=O)C(CCCCN1CCC34C=CC(O)C[C@H]3Oc3c(OC)ccc(c34)C1)C2 (stereo partly shown) [SPH-1335] | 0.02 µM |
| COc1cc2c(cc1OC)C(=O)C(CCCCCN1CCC34C=CC(O)C[C@H]3Oc3c(OC)ccc(c34)C1)C2 (stereo partly drawn) [SPH-1359, 2-[5-[(4aS,6R,8aS)-6-Hydroxy-3-methoxy-5,6,9,10,11,12-hexahydro-4aH-benzofuro[3a,3,2-e,f][2]benzazepine-11-yl]pentyl]-5,6-dimethoxyindan-1-one] | 0.0052 µM |
| COc1cc2c(cc1OC)C(=O)C(CCCCCN1CCC34C=CC(O)C[C@H]3Oc3c(OC)ccc(c34)C1)C2 (stereo partly shown) [SPH-1375] | 0.023 µM |
| COc1cc2c(cc1OC)C(=O)C(CCCCN1CCC34C=CC(O)C[C@H]3Oc3c(OC)ccc(c34)C1)C2 (stereo partly shown) [SPH-1376] | 0.02 µM |
